{"source": "patent US6417229B1", "about": "“α-sulfonylamino hydroxamic acid inhibitors of matrix metalloproteinases for the treatment of peripheral or central nervous system disorders” (Pfizer Inc, priority 1999, dated 2002)", "origin": "cited, not measured here", "key": {"[1]": {"tested_on": "Experimental Autoimmune Neuritis (EAN)", "details": "Redford et al. 1997"}, "[2]": {"tested_on": "Experimental Autoimmune Encephelomyelitis (EAE)", "details": "mice with EAE; Gijbels 1994"}, "[3]": {"tested_on": "MMP-9 induction by Aβ", "details": "rat microglia; Gottschall 1996"}}, "data": [{"smiles": "C=CC[C@H](C(=O)NO)[C@@H](CC(C)C)C(=O)N[C@@H](Cc1ccccc1)C(=O)NC", "note": "[BB-1101]", "values": [{"measurement": "effect on EAN", "setting": "[1]", "result": "attenuates Experimental Autoimmune Neuritis (EAN)"}]}, {"smiles": "CNC(=O)[C@H](Cc1c[nH]c2ccccc12)NC(=O)[C@@H](CC(=O)NO)CC(C)C", "note": "[GM6001]", "values": [{"measurement": "effect on EAE", "setting": "[2]", "result": "suppress the development of, or reverse established, EAE"}]}, {"smiles": "COc1ccc2c(c1)c(CC(=O)O)c(C)n2C(=O)c1ccc(Cl)cc1", "note": "[indomethacin]", "values": [{"measurement": "inhibition of MMP-9 induction by Aβ", "setting": "[3]", "result": "can be inhibited"}]}]}
